Patent US20230031406A1, “COMPOUNDS AND COMPOSITIONS FOR TREATING CONDITIONS ASSOCIATED WITH NLRP ACTIVITY” (Novartis AG, priority 2018, published 2023)

These compounds were tested on PMA-differentiated THP-1 cells (assay: IL-1β production in PMA-differentiated THP-1 cells stimulated with gramicidin (hTHP-1 assay containing 2% fetal bovine serum; Procedures 1 and 2)). Settings: Homo sapiens, THP-1, Table B1; 2% fetal bovine serum; class symbols; read-out: Average IC50 of compounds in hTHP-1 assay: hTHP-1 IC50.
Type: cell-based, human
How it was run: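 Human monocytic THP-1 cells, matured overnight with PMA at 20 ng/ml, are seeded in low-serum (2% FBS) RPMI. Test compounds, at final concentrations from 100 down to 0.0017 μM, precede gramicidin (5 μM, 2 h) by one hour. Released IL-1β is then determined by HTRF.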
Compound `CC(C)c1c(-c2ccccc2)nc2c(c1NC(=O)N=S(N)(=O)c1cnc(C(C)(C)O)s1)CCC2` (centres unmarked) [Compound 145, 2-(2-hydroxypropan-2-yl)-N′-((3-isopropyl-2-phenyl-6,7-dihydro-5H-cyclopenta[b]pyridin-4-yl)carbamoyl)thiazole-5-sulfonimidamide] has an IC50 of 5000 to 30000 nM.
Compound `CC(C)(O)c1ncc(S(N)(=O)=NC(=O)Nc2c3c([n+]([O-])c4c2CCC4)CCC3)s1` (centres unmarked) [Compound 146, 8-(3-(amino(2-(2-hydroxypropan-2-yl)thiazol-5-yl)(oxo)-λ6-sulfaneylidene)ureido)-1,2,3,5,6,7-hexahydrodicyclopenta[b,e]pyridine 4-oxide] has an IC50 of 5000 to 30000 nM.
For `CC1(C)Cc2nc3c(c(NC(=O)N=S(N)(=O)c4cnc(C(C)(C)O)s4)c2C1)CCC3` (centres unmarked) [Compound 147, N′-((2,2-dimethyl-1,2,3,5,6,7-hexahydrodicyclopenta[b,e]pyridin-8-yl)carbamoyl)-2-(2-hydroxypropan-2-yl)thiazole-5-sulfonimidamide], the IC50 was 5000 to 30000 nM.
`CC(C)c1ncc(F)c(C(C)C)c1NC(=O)N=S(N)(=O)c1cc(C(C)(C)O)cs1` (centres unmarked) [Compound 148, N′-((5-fluoro-2,4-diisopropylpyridin-3-yl)carbamoyl)-4-(2-hydroxypropan-2-yl)thiophene-2-sulfonimidamide] showed an IC50 of 40 to 200 nM.
For `CC(C)(O)c1ccc(S(N)(=O)=NC(=O)Nc2c3c(nc4c2CCC4)CCC3)s1` (centres unmarked) [Compound 149, N′-((1,2,3,5,6,7-hexahydrodicyclopenta[b,e]pyridin-8-yl)carbamoyl)-5-(2-hydroxypropan-2-yl)thiophene-2-sulfonimidamide], the IC50 was 200 to 1000 nM.
For `CC(C)(O)c1nc(CO)c(S(N)(=O)=NC(=O)Nc2c3c(nc4c2CCC4)CCC3)s1` (centres unmarked) [Compound 150, N′-((1,2,3,5,6,7-hexahydrodicyclopenta[b,e]pyridin-8-yl)carbamoyl)-4-(hydroxymethyl)-2-(2-hydroxypropan-2-yl)thiazole-3-sulfonimidamide], the IC50 was 1000 to 5000 nM.
In the case of `CC1CCc2nc3c(c(NC(=O)N=S(N)(=O)c4cnc(C(C)(C)O)s4)c21)CCC3` (centres unmarked) [Compound 151, 2-(2-hydroxypropan-2-yl)-N′-((1-methyl-1,2,3,5,6,7-hexahydrodicyclopenta[b,e]pyridin-8-yl)carbamoyl)thiazole-5-sulfonimidamide], the IC50 is reported as 200 to 1000 nM.
`CC1Cc2nc3c(c(NC(=O)N=S(N)(=O)c4cnc(C(C)(C)O)s4)c2C1)CCC3` (centres unmarked) [Compound 152, 2-(2-hydroxypropan-2-yl)-N′-((2-methyl-1,2,3,5,6,7-hexahydrodicyclopenta[b,e]pyridin-8-yl)carbamoyl)thiazole-5-sulfonimidamide] showed an IC50 of 200 to 1000 nM.
`CC(C)(O)c1ncc(S(N)(=O)=NC(=O)Nc2c3c(nc4c2CCC4(C)C)CCC3)s1` (centres unmarked) [Compound 153, N′-((3,3-dimethyl-1,2,3,5,6,7-hexahydrodicyclopenta[b,e]pyridin-8-yl)carbamoyl)-2-(2-hydroxypropan-2-yl)thiazole-5-sulfonimidamide] showed an IC50 of 40 to 200 nM.
For `CC(C)(O)c1nc(S(N)(=O)=NC(=O)Nc2c3c(nc4c2CCC4)CCC3)cs1` (centres unmarked) [Compound 154], the IC50 was 200 to 1000 nM.
`CC(C)(O)c1csc(S(N)(=O)=NC(=O)Nc2c3c(nc4c2CCC4)CCC3)c1` (centres unmarked) [Compound 155, N′-((1,2,3,5,6,7-hexahydrodicyclopenta[b,e]pyridin-8-yl)carbamoyl)-4-(2-hydroxypropan-2-yl)thiophene-2-sulfonimidamide] showed an IC50 of 40 to 200 nM.
Work on `Cc1nc(C(C)(C)O)ccc1S(N)(=O)=NC(=O)Nc1c2c(nc3c1CCC3)CCC2` (centres unmarked) [Compound 157, N′-((1,2,3,5,6,7-hexahydrodicyclopenta[b,e]pyridin-8-yl)carbamoyl)-6-(2-hydroxypropan-2-yl)-2-methylpyridine-3-sulfonimidamide] yielded an IC50 of 5000 to 30000 nM.
Compound `Cn1nc(S(N)(=O)=NC(=O)Nc2c3c(nc4c2CCC4)CCC3)cc1C(C)(C)O` (centres unmarked) [Compound 158, N-((1,2,3,5,6,7-hexahydrodicyclopenta[b,e]pyridin-8-yl)carbamoyl)-5-(2-hydroxypropan-2-yl)-1-methyl-1H-pyrazole-3-sulfonimidamide] has an IC50 of 1000 to 5000 nM.
Work on `CC(C)(O)c1cc(S(N)(=O)=NC(=O)Nc2c3c(nc4c2CCC4)CCC3)nn1-c1ccccc1` (centres unmarked) [Compound 159, N-((1,2,3,5,6,7-hexahydrodicyclopenta[b,e]pyridin-8-yl)carbamoyl)-5-(2-hydroxypropan-2-yl)-1-phenyl-1H-pyrazole-3-sulfonimidamide] yielded an IC50 of 1000 to 5000 nM.
Compound `CC(C)c1cncc(C(C)C)c1NC(=O)N=S(N)(=O)c1cnc(C(C)(C)O)s1` (centres unmarked) [Compound 160, N′-((3,5-diisopropylpyridin-4-yl)carbamoyl)-2-(2-hydroxypropan-2-yl)thiazole-5-sulfonimidamide] has an IC50 of 5000 to 30000 nM.
Work on `CC(C)(O)c1ncc(S(N)(=O)=NC(=O)Nc2c3c(nc4c2CCC4)CCCC3)s1` (centres unmarked) [Compound 161, N′-((2,3,5,6,7,8-hexahydro-1H-cyclopenta[b]quinolin-9-yl)carbamoyl)-2-(2-hydroxypropan-2-yl)thiazole-5-sulfonimidamide] yielded an IC50 of 1000 to 5000 nM.

Same assay, conditions: Homo sapiens, THP-1, Table B1; 2% fetal bovine serum; numeric bounds; read-out: Average IC50 of compounds in hTHP-1 assay: hTHP-1 IC50
For `CC(C)(O)c1ncc(S(N)(=O)=NC(=O)Nc2cc(-c3ccccc3)nc3c2CCC3)s1` (centres unmarked) [Compound 142, 2-(2-hydroxypropan-2-yl)-N′-((2-phenyl-6,7-dihydro-5H-cyclopenta[b]pyridin-4-yl)carbamoyl)thiazole-5-sulfonimidamide], the IC50 was > 30000 nM.
In the case of `Cc1c(-c2ccccc2)nc2c(c1NC(=O)N=S(N)(=O)c1cnc(C(C)(C)O)s1)CCC2` (centres unmarked) [Compound 143, 2-(2-hydroxypropan-2-yl)-N′-((3-methyl-2-phenyl-6,7-dihydro-5H-cyclopenta[b]pyridin-4-yl)carbamoyl)thiazole-5-sulfonimidamide], the IC50 is reported as > 30000 nM.
For `CCc1c(-c2ccccc2)nc2c(c1NC(=O)N=S(N)(=O)c1cnc(C(C)(C)O)s1)CCC2` (centres unmarked) [Compound 144, N′-((3-ethyl-2-phenyl-6,7-dihydro-5H-cyclopenta[b]pyridin-4-yl)carbamoyl)-2-(2-hydroxypropan-2-yl)thiazole-5-sulfonimidamide], the IC50 was > 30000 nM.
In the case of `CC(C)(O)c1ccc(S(N)(=O)=NC(=O)Nc2c3c(nc4c2CCC4)CCC3)cn1` (centres unmarked) [Compound 156, N′-((1,2,3,5,6,7-hexahydrodicyclopenta[b,e]pyridin-8-yl)carbamoyl)-6-(2-hydroxypropan-2-yl)pyridine-3-sulfonimidamide], the IC50 is reported as > 30000 nM.

Same assay, conditions: Homo sapiens, THP-1, Table B2; 2% fetal bovine serum; class symbols; read-out: hTHP-1 IC50
Compound `C[C@@H]1CCc2c1nc1c(c2NC(=O)N=S(N)(=O)c2ncc(C(C)(C)O)s2)CCC1` (stereo partly drawn) [Compound 140c, 5-(2-Hydroxypropan-2-yl)-N′-(((R)-3-methyl-1,2,3,5,6,7-hexahydrodicyclopenta[b,e]pyridin-8-yl)carbamoyl)thiazole-2-sulfonimidamide] has an IC50 of 200 to 1000 nM.

Same assay, conditions: Table B1; 2% fetal bovine serum; class symbols; read-out: Average IC50 of compounds in hTHP-1 assay: hTHP-1 IC50
With `CC1CCc2c1nc1c(c2NC(=O)N=S(N)(=O)c2cc(C(C)(C)O)cs2)CCC1` (centres unmarked) [Compound 141, 4-(2-hydroxypropan-2-yl)-N′-((3-methyl-1,2,3,5,6,7-hexahydrodicyclopenta[b,e]pyridin-8-yl)carbamoyl)thiophene-2-sulfonimidamide] the IC50 was 40 to 200 nM.
Work on `CC1CCc2c1nc1c(c2NC(=O)N=S(N)(=O)c2cnc(C(C)(C)O)s2)CCC1` (centres unmarked) [Compound 162, 2-(2-hydroxypropan-2-yl)-N′-((3-methyl-1,2,3,5,6,7-hexahydrodicyclopenta[b,e]pyridin-8-yl)carbamoyl)thiazole-5-sulfonimidamide] yielded an IC50 of 40 to 200 nM.
